The target of assay [1] is T1, WDR5 (Homo sapiens, UniProt P61964). Nature of the assay: Surface Plasmon Resonance (SPR) assay. Type of assay: binding. Set-up: Full length WDR5 with an N-terminal His tag and C-terminal AviTag; His tag (N); made in house; host or cells: E. coli. The following applies: read-out: SPR Kd. A digest of the protocol: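 Full-length biotinylated WDR5 (N-His, C-AviTag, E. coli) captured (~3000 RU) on streptavidin SA chip; Biacore T200. HBS-EP pH 7.4 plus 5% DMSO running buffer, 40 μl/min.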

The target in assay [2] is T1, WDR5. Nature of the assay: Fluorescence Polarization (FP) binding assay. A digest of the protocol: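 Displacement of fluorescein-labelled H3 (1-15) (30 nM, with 0.3 μM WDR5) or 9-Ala-FAM (20 nM, with 0.05 μM WDR5) in 80 mM sodium phosphate pH 6.5, 20 mM KCl, 0.008% Triton X-100. FP read at 485/528 nm (H3) or 480/540 nm (9-Ala-FAM); Kdisp from hyperbolic fit, mean of quadruplicates.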
Background: Fluorescence polarisation rises when a labelled molecule tumbles more slowly, as on binding a larger partner.

The test system of assay [3] is MV4-11 cells. Nature of the assay: Cell proliferation assay (ATPlite). Type of assay: cell-based. To be noted: Homo sapiens, 120 h; MV4-11 cells, five days; read-out: GI MV411 EC50. A digest of the protocol: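 Cells seeded at 1,000/well in Alpha-MEM with 10% FBS, treated with compound over a 10-point range (top 10 μM) or DMSO. Grown five days at 37° C, 5% CO2; viability by ATPlite luminescence.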
(ATP-based viability assays read luminescence as a measure of living cells.)

Structures are written as SMILES. Where a name gives a salt, the structure may show the parent alone.

As usually defined, the Kd is a measure of binding affinity in units of concentration. The IC50 is the midpoint of a concentration-inhibition curve. For orientation: EC50 means the concentration that produces a half-maximal response. Consider `Cc1sc(-c2c(F)cc(N3CCN(C)[C@@H](C)C3)c(NC(=O)c3ccc(F)cc3C(F)(F)F)c2F)nc1C(=O)N1CCCC1` [Example 154, (S)—N-(6-(3,4-dimethylpiperazin-1-yl)-2,4-difluoro-3-(5-methyl-4-(pyrrolidine-1-carbonyl)thiazol-2-yl)phenyl)-4-fluoro-2-(trifluoromethyl)benzamide], for which the Kd in assay [1] turned out to be 0.64 nM. Further, the IC50 in assay [2] is 11.4 nM. Moreover, the EC50 in assay [3] was determined as 92 nM.

As for `C[C@H]1CN(c2cc(F)c(-c3cnc(N4CC5CCC(C4)O5)nc3)c(F)c2NC(=O)c2c[nH]c(=O)cc2C(F)F)CCN1C` [Example 155, (S)—N-(3-(2-(8-oxa-3-azabicyclo[3.2.1]octan-3-yl)pyrimidin-5-yl)-6-(3,4-dimethylpiperazin-1-yl)-2,4-difluorophenyl)-4-(difluoromethyl)-6-oxo-1,6-dihydropyridine-3-carboxamide-], the Kd in assay [1] worked out at 1.21 nM. The 50% inhibitory concentration (IC50) in assay [2] came out at 11.2 nM. The EC50 in assay [3] was found to be 74 nM.

For the compound `C[C@@H]1CN(c2cc(F)c(-c3cnc(N4CC5CCC(C4)O5)nc3)c(F)c2NC(=O)c2c[nH]c(=O)cc2C(F)F)C[C@H](C)N1C` [Example 156, N-(3-(2-(8-oxa-3-azabicyclo[3.2.1]octan-3-yl)pyrimidin-5-yl)-2,4-difluoro-6-((3S,5R)-3,4,5-trimethylpiperazin-1-yl)phenyl)-4-(difluoromethyl)-6-oxo-1,6-dihydropyridine-3-carboxamide], the Kd in assay [1] is 1.96 nM. Further, the IC50 in assay [2] was found to be 15.4 nM. Besides, the EC50 in assay [3] came to 81.2 nM.

Regarding `C[C@H]1CN(c2ncc(-c3c(F)cc(N4CCN(C)[C@@H](C)C4)c(NC(=O)c4ccc(F)cc4C(F)F)c3F)cn2)C[C@H](C)O1` [Example 157, 2-(Difluoromethyl)-N-(3-(2-((2S,6S)-2,6-dimethylmorpholino)pyrimidin-5-yl)-6-((S)-3,4-dimethylpiperazin-1-yl)-2,4-difluorophenyl)-4-fluorobenzamide], in assay [1], the Kd was 0.22 nM. The IC50 in assay [2] stood at 16.1 nM. Besides, the EC50 in assay [3] worked out at 65.6 nM.

Consider `C[C@@H]1CN(c2ncc(-c3c(F)cc(N4CCN(C)[C@@H](C)C4)c(NC(=O)c4ccc(F)cc4C(F)F)c3F)cn2)C[C@@H](C)O1` [Example 158, 2-(Difluoromethyl)-N-(3-(2-((2R,6R)-2,6-dimethylmorpholino)pyrimidin-5-yl)-6-((S)-3,4-dimethylpiperazin-1-yl)-2,4-difluorophenyl)-4-fluorobenzamide], for which the Kd in assay [1] is 0.43 nM. Moreover, the IC50 in assay [2] was found to be 14 nM. The EC50 in assay [3] was 88.3 nM.

As for `Cc1nc(C(=O)N2CC=C(c3c(F)cc(N4CCN(C)[C@@H](C)C4)c(NC(=O)c4c[nH]c(=O)cc4C(F)F)c3F)CC2)cs1` [Example 159, (S)-4-(difluoromethyl)-N-(6-(3,4-dimethylpiperazin-1-yl)-2,4-difluoro-3-(1-(2-methylthiazole-4-carbonyl)-1,2,3,6-tetrahydropyridin-4-yl)phenyl)-6-oxo-1,6-dihydropyridine-3-carboxamide], in assay [1], the Kd was 2.2 nM. Besides, the IC50 in assay [2] came to 13.9 nM. In assay [3], the EC50 was 440 nM.

Consider `C[C@H]1CN(c2ncc(-c3c(F)cc(N4CCN(C)[C@@H](C)C4)c(NC(=O)c4cn(C)c(=O)cc4C(F)F)c3F)cn2)C[C@H](C)O1` [Example 160, 4-(Difluoromethyl)-N-(3-(2-((2S,6S)-2,6-dimethylmorpholino)pyrimidin-5-yl)-6-((S)-3,4-dimethylpiperazin-1-yl)-2,4-difluorophenyl)-1-methyl-6-oxo-1,6-dihydropyridine-3-carboxamide], for which, in assay [1], the Kd was determined as 1.36 nM. Moreover, the IC50 in assay [2] was 14 nM. In addition, in assay [3], the EC50 turned out to be 254 nM.

Take `C[C@@H]1CN(c2ncc(-c3c(F)cc(N4CCN(C)[C@@H](C)C4)c(NC(=O)c4cn(C)c(=O)cc4C(F)F)c3F)cn2)C[C@H](C)O1` [Example 161, 4-(Difluoromethyl)-N-(3-(2-((2S,6R)-2,6-dimethylmorpholino)pyrimidin-5-yl)-6-((S)-3,4-dimethylpiperazin-1-yl)-2,4-difluorophenyl)-1-methyl-6-oxo-1,6-dihydropyridine-3-carboxamide]: the Kd in assay [1] amounted to 1.1 nM. Further, the IC50 in assay [2] worked out at 11.9 nM. Moreover, in assay [3], the EC50 stood at 79.3 nM.

On to `C[C@@H]1CN(c2ncc(-c3c(F)cc(N4CCN(C)[C@@H](C)C4)c(NC(=O)c4cn(C)c(=O)cc4C(F)F)c3F)cn2)C[C@@H](C)O1` [Example 162, 4-(Difluoromethyl)-N-(3-(2-((2R,6R)-2,6-dimethylmorpholino)pyrimidin-5-yl)-6-((S)-3,4-dimethylpiperazin-1-yl)-2,4-difluorophenyl)-1-methyl-6-oxo-1,6-dihydropyridine-3-carboxamide], for which the Kd in assay [1] was determined as 1.25 nM. Further, in assay [2], the IC50 was 14.1 nM. In assay [3], the half-maximal effective concentration (EC50) is 210 nM.

For `C[C@H]1CN(c2ncc(-c3c(F)cc(N4CCN(C)[C@@H](C)C4)c(NC(=O)c4cn(C)c(=O)cc4C(F)(F)F)c3F)cn2)C[C@H](C)O1` [Example 163, N-(3-(2-((2S,6S)-2,6-dimethylmorpholino)pyrimidin-5-yl)-6-((S)-3,4-dimethylpiperazin-1-yl)-2,4-difluorophenyl)-1-methyl-6-oxo-4-(trifluoromethyl)-1,6-dihydropyridine-3-carboxamide], in assay [1], the dissociation constant Kd amounted to 1.1 nM. Moreover, in assay [2], the IC50 worked out at 15.3 nM. In addition, the EC50 in assay [3] came to 83.4 nM.

As to `C[C@@H]1CN(c2ncc(-c3c(F)cc(N4CCN(C)[C@@H](C)C4)c(NC(=O)c4cn(C)c(=O)cc4C(F)(F)F)c3F)cn2)C[C@H](C)O1` [Example 164, N-(3-(2-((2S,6R)-2,6-dimethylmorpholino)pyrimidin-5-yl)-6-((S)-3,4-dimethylpiperazin-1-yl)-2,4-difluorophenyl)-1-methyl-6-oxo-4-(trifluoromethyl)-1,6-dihydropyridine-3-carboxamide], the Kd in assay [1] was 1.16 nM. Besides, the IC50 in assay [2] came to 13.3 nM. Also, the EC50 in assay [3] stood at 71.9 nM.

Turning to `C[C@@H]1CN(c2ncc(-c3c(F)cc(N4CCN(C)[C@@H](C)C4)c(NC(=O)c4cn(C)c(=O)cc4C(F)(F)F)c3F)cn2)C[C@@H](C)O1` [Example 165, N-(3-(2-((2R,6R)-2,6-dimethylmorpholino)pyrimidin-5-yl)-6-((S)-3,4-dimethylpiperazin-1-yl)-2,4-difluorophenyl)-1-methyl-6-oxo-4-(trifluoromethyl)-1,6-dihydropyridine-3-carboxamide], the Kd in assay [1] is 0.82 nM. For the same compound, in assay [2], the IC50 worked out at 13.6 nM. The EC50 in assay [3] was 169 nM.

`C[C@H]1CN(c2ncc(-c3c(F)cc(N4CCN(C)[C@@H](C)C4)c(NC(=O)c4ccc(F)cc4C(F)(F)F)c3F)cn2)C[C@H](C)O1` [Example 166, N-(3-(2-((2S,6S)-2,6-dimethylmorpholino)pyrimidin-5-yl)-6-((S)-3,4-dimethylpiperazin-1-yl)-2,4-difluorophenyl)-4-fluoro-2-(trifluoromethyl)benzamide Formic Acid Salt]: in assay [1], the Kd came to 0.73 nM. In assay [2], the IC50 stood at 11.7 nM. The EC50 in assay [3] amounted to 63.6 nM.

In the case of `C[C@@H]1CN(c2ncc(-c3c(F)cc(N4CCN(C)[C@@H](C)C4)c(NC(=O)c4ccc(F)cc4C(F)(F)F)c3F)cn2)C[C@@H](C)O1` [Example 167, N-(3-(2-((2R,6R)-2,6-dimethylmorpholino)pyrimidin-5-yl)-6-((S)-3,4-dimethylpiperazin-1-yl)-2,4-difluorophenyl)-4-fluoro-2-(trifluoromethyl)benzamide Formic Acid Salt], in assay [1], the Kd came to 0.66 nM. In addition, in assay [2], the IC50 came out at 11.5 nM. The EC50 in assay [3] is 75.5 nM.

Regarding `C[C@@H]1CN(c2ccc(-c3c(F)cc(N4C[C@@H](C)N(C)[C@@H](C)C4)c(NC(=O)c4c[nH]c(=O)cc4C(F)(F)F)c3F)cn2)CCO1` [Example 168, N-(2,4-difluoro-3-(6-((R)-2-methylmorpholino)pyridin-3-yl)-6-((3S,5R)-3,4,5-trimethylpiperazin-1-yl)phenyl)-6-oxo-4-(trifluoromethyl)-1,6-dihydropyridine-3-carboxamide], the Kd in assay [1] was determined as 0.87 nM. Besides, in assay [2], the IC50 amounted to 16.6 nM. In addition, the EC50 in assay [3] is 36.8 nM.

Turning to `C[C@@H]1CN(c2ccc(-c3c(F)cc(N4CCN(C)[C@@H](C)C4)c(NC(=O)c4c[nH]c(=O)cc4C(F)(F)F)c3F)cn2)CCO1` [Example 169, N-(6-((S)-3,4-dimethylpiperazin-1-yl)-2,4-difluoro-3-(6-((R)-2-methylmorpholino)pyridin-3-yl)phenyl)-6-oxo-4-(trifluoromethyl)-1,6-dihydropyridine-3-carboxamide], the Kd in assay [1] came out at 0.99 nM. The IC50 in assay [2] came out at 16.7 nM. Moreover, the 50% effective concentration (EC50) in assay [3] is 51.4 nM.

Turning to `C[C@@H]1CN(c2ccc(-c3c(F)cc(N4CCN(C)[C@@H](C)C4)c(NC(=O)c4c[nH]c(=O)cc4C(F)(F)F)c3F)cn2)C[C@H](C)O1` [Example 170, N-(3-(6-((2S,6R)-2,6-dimethylmorpholino)pyridin-3-yl)-6-((S)-3,4-dimethylpiperazin-1-yl)-2,4-difluorophenyl)-6-oxo-4-(trifluoromethyl)-1,6-dihydropyridine-3-carboxamide], the Kd in assay [1] came out at 0.83 nM. The IC50 in assay [2] was 15.6 nM. Further, the EC50 in assay [3] was 32.3 nM.

The values are drawn from patent publication US20200385371A1 (Propellon Therapeutics Inc., priority 2017, published 2020).
